Experimental data taken from ChEMBL document CHEMBL1134904, “The activity of p-methoxybenzylisothiocyanate against Neisseria gonorrhoeae, Haemophilus ducreyi, and other microorganisms” (Bioorg Med Chem Lett, 2002).
≈ marks a conversion by molar mass, not a printed value.

What was measured:
Enterobacter sp. = test: The compound was tested for minimal inhibitory concentration against Enterobacter sp.; assay type: functional
Candida albicans = test: The compound was tested for minimal inhibitory concentration against Candida albicans; assay type: functional
Escherichia coli = test: The compound was tested for minimal inhibitory concentration against Escherichia coli; assay type: functional
Pseudomonas aeruginosa [1] = test: The compound was tested for minimal inhibitory concentration against Pseudomonas aeruginosa; assay type: functional
[Haemophilus] ducreyi = The compound was tested for minimal inhibitory concentration against Haemophilus ducreyi; assay type: functional
Staphylococcus aureus [2] = test: The compound was tested for minimal inhibitory concentration against Resistant Staphylococcus aureus; assay type: functional
Neisseria gonorrhoeae [3] = test: The compound was tested for minimal inhibitory concentration against Penicillinase producing Neisseria gonorrhoeae (PPNG); assay type: functional
Bacillus subtilis = test: The compound was tested for minimal inhibitory concentration against Bacillus subtilis; assay type: functional
[4] = In vitro cellular toxicity was determined at a concentration of 100 uM in Graham cell lines; found to be non toxic at the above concentration; assay type: cell-based
Micrococcus luteus = test: The compound was tested for minimal inhibitory concentration against Micrococcus luteus; assay type: functional
Staphylococcus aureus [5] = test: The compound was tested for minimal inhibitory concentration against Staphylococcus aureus; assay type: functional
Neisseria gonorrhoeae [6] = test: The compound was tested for minimal inhibitory concentration against Neisseria gonorrhoeae; assay type: functional
Pseudomonas aeruginosa [7] = test: The compound was tested for minimal inhibitory concentration against Resistant Pseudomonas aeruginosa; assay type: functional

Structure (SMILES) | MIC (Enterobacter sp.) [µg/mL] | MIC (Candida albicans) [µg/mL] | MIC (Escherichia coli) [µg/mL] | MIC (Pseudomonas aeruginosa [1]) [µg/mL] | MIC ([Haemophilus] ducreyi) [µg/mL] | MIC (Staphylococcus aureus [2]) [µg/mL] | MIC (Neisseria gonorrhoeae [3]) [µg/mL] | MIC (Bacillus subtilis) [µg/mL] | Toxicity [4] | MIC (Micrococcus luteus) [µg/mL] | MIC (Staphylococcus aureus [5]) [µg/mL] | MIC (Neisseria gonorrhoeae [6]) [µg/mL] | MIC (Pseudomonas aeruginosa [7]) [µg/mL]
COc1ccc(CN=C=S)cc1 | 8 (≈ 44.6 µM) | 2 (≈ 11.2 µM) | 32 (≈ 179 µM) | 16 (≈ 89.3 µM) | 64 (≈ 357 µM) | 8 (≈ 44.6 µM) | 4 (≈ 22.3 µM) | 32 (≈ 179 µM) | Not toxic | 8 (≈ 44.6 µM) | 2 (≈ 11.2 µM) | 4 (≈ 22.3 µM) | 16 (≈ 89.3 µM)
C[C@@H]1[C@H](O)[C@@H](C)/C=C/C=C/C=C/C=C/C=C/C=C/C=C/[C@H](O[C@@H]2O[C@H](C)[C@@H](O)[C@H](N)[C@@H]2O)C[C@@H]2O[C@](O)(C[C@@H](O)C[C@@H](O)[C@H](O)CC[C@@H](O)C[C@@H](O)CC(=O)O[C@H]1C)C[C@H](O)[C@H]2C(=O)O (relative stereo) [AMPHOTERICIN B] |  | 2 (≈ 2.16 µM) |  |  |  |  |  |  |  |  |  |  | 
CC1(C)S[C@@H]2[C@H](NC(=O)[C@H](N)c3ccccc3)C(=O)N2[C@H]1C(=O)O [AMPICILLIN] | 16 (≈ 45.8 µM) |  | 8 (≈ 22.9 µM) | > 32 | 2 (≈ 5.72 µM) | > 32 | > 32 | > 32 |  | 2 (≈ 5.72 µM) | 2 (≈ 5.72 µM) | 0.25 (≈ 0.715 µM) | 
O=C(O)c1cn(C2CC2)c2cc(N3CCNCC3)c(F)cc2c1=O [CIPROFLOXACIN] | 2 (≈ 6.04 µM) |  |  |  |  | > 32 | 0.25 (≈ 0.754 µM) | 2 (≈ 6.04 µM) |  | 2 (≈ 6.04 µM) | 2 (≈ 6.04 µM) | 0.25 (≈ 0.754 µM) | > 32
C[C@H]1c2cccc(O)c2C(=O)C2=C(O)[C@]3(O)C(=O)C(C(N)=O)=C(O)[C@@H](N(C)C)[C@@H]3[C@@H](O)[C@@H]21.O [DOXYCYCLINE] | 8 |  | 2 | 8 | 4 | > 32 | > 32 | 8 |  | 8 | 8 | 0.5 | > 32
OC(Cn1cncn1)(Cn1cncn1)c1ccc(F)cc1F [FLUCONAZOLE] |  | 0.25 (≈ 0.816 µM) |  |  |  |  |  |  |  |  |  |  | 
